Experiments:
[1] = tested on: liver cancer cell line (HepG-2); assay: MTT anticancer activity, HepG-2; format: cell-based, human; conditions: Homo sapiens, HepG2; HepG-2, 72 h, MTT; mean ± SEM
Outline: (§1)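 Cells seeded at 5x10^3/well (Caco-2 in DMEM, others in RPMI-1640, 10% FBS) and exposed to serial compound concentrations for 72 h at 37 °C, 5% CO2, starting 24 h after seeding. MTT (3 h, 37 °C) read at 570 nm after DMSO solubilisation; IC50 calculated from viability.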

[2] = tested on: normal human lung fibroblast Wi-38 cell line; assay: MTT cytotoxicity on normal cells; format: cell-based; conditions: Homo sapiens; Wi-38, MTT; read-out: IC50 on human lung fibroblasts (Wi-38)
Outline: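 Wi-38 fibroblasts in DMEM with 10% FBS were seeded at 5x10^3 cells/well, left 24 h to attach, then exposed to serial compound concentrations for 72 h at 37 °C, 5% CO2. MTT was added for 3 h, formazan dissolved in DMSO and absorbance read at 570 nm. IC50 and EC100 (safe dose) were estimated from the concentration series.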

HepG-2 = assay: Flow cytometric annexin V/PI analysis of apoptosis, HepG-2; format: cell-based, human; conditions: IC50 of compound, 72 h, mean ± SEM
Caco-2 = assay: Flow cytometric annexin V/PI analysis of apoptosis, Caco-2; format: cell-based; conditions: IC50 of compound, 72 h, mean ± SEM
Method: (§2) The apoptosis-dependent […] was determined by quantification of annexin-stained apoptotic cells using the FITC signal detector (FL1) against the phycoerythrin emission signal detector (FL2) (Supplementary Page S55). […]
(§3) MTT method was used for assaying cell viability 25. Twenty microliters of 5 mg/ml MTT (Sigma, USA) was added to each well and the plate was incubated at 37 °C for 3 h. Then MTT solution was removed, 100 µl DMSO was used and the absorbance of each well was measured with a microplate reader ( BMG LabTech, […]
(§4) Germany) at 570 nm. […]
(§5) Graphpad Instat software.
(§6) Determination of the anticancer activity
Anticancer effect of the above-mentioned compounds was evaluated using four human […]
cancer cell lines. […]
All cancer cells (5x10^3 cells/well) were seeded in sterile
96-well plates. After 24h, serial concentrations of the tested compounds and Dox were incubated with four cancer cell lines for 72 h at 37 °C in 5% CO2 incubator. MTT method was done as described above. The Graphpad Instat software was used for calculating the half maximal inhibitory concentration (IC50) values. […]
(§7) Flow cytometric analysis of apoptosis
(§8) Caco-2, PC-3 and NFS-60 cell lines. After trypsinization, the untreated and treated cells were incubated with annexin V/PI for 15 min. Then cells were fixed and incubated with streptavidin-fluorescein (5 µg/mL) for 15 min. The apoptosis-dependent anticancer effect was determined by quantification of annexin-stained apoptotic cells using the FITC signal detector (FL1) against the phycoerythrin emission signal detector (FL2). […]

[3] = tested on: caspase 3/7 in HepG-2 cells; assay: Caspase 3/7 activation assay (Apo-ONE kit); format: cell-based, human; conditions: caspase 3/7, relative to untreated HepG2 cells; mean ± SEM
Source text: The percentage of caspase 3/7 activation was quantified using the Apo-ONE ® caspase 3/7 kit following the manufacturer’s instructions[27] (Supplementary Page S56).
It’s a fluorescence assay that measures caspase-3 and −7 activities. Caspase 3/7 activators are well known as apoptotic inducers.
Caspase 3/7 activation assay
The Apo-ONE ® caspase 3/7 kit following the manufacturer’s instructions was used for quantifying the percentage of caspase 3/7 activation. The fluorescence substrate present in the kit was cut by caspases to produce fluorescence signal. This signal was measured by the fluorescence omega microplate reader (BMG LabTech, Germany) at 490 nm excitation and 520 nm emission.
Data were expressed as mean ± standard error of the mean (SEM). Statistical significance was estimated by the multiple comparisons Tukey post-hoc analysis of variance (ANOVA) using the SPSS16 program. When p < 0.05, the differences were marked as statistically significant.
PIM-1 and PIM-2 kinase inhibitory activity
PIM-1 and PIM-2 kinase utilizing PIM-1 and PIM-2 Kinase Assay Kit – Promega Corporation catalog #V4032, following the manufacturer’s instructions 26 […]
Information Classification: General

PC-3 = assay: Flow cytometric annexin V/PI analysis of apoptosis, PC-3; format: cell-based, human; conditions: IC50 of compound, 72 h, mean ± SEM
Method: as §2
(§9) MTT method was used for assaying cell viability 25. Twenty microliters of 5 mg/ml MTT (Sigma, USA) was added to each well and the plate was incubated at […]
(§10) 37 °C for 3 h. […]
as §5, §6
(§11) Anticancer effect of the above-mentioned compounds was evaluated using four human cancer cell lines. Colon cancer cells (Caco-2) were maintained in DMEM (Lonza, USA) containing 10% FBS while myeloid leukemia cell line (NFS-60), liver cancer cell line (HepG-2) and prostate cancer cell line (PC-3) were cultured in RPMI-1640 (Lonza, USA) supplemented with 10% FBS. All cancer cells (5x10^3 cells/well) were seeded in sterile 96-well plates. After 24h, serial concentrations of the tested compounds and Dox were incubated with four cancer cell lines for 72 h at 37 °C in 5% CO2 incubator. MTT method was done as described above. The Graphpad Instat software was used for calculating the half maximal inhibitory concentration (IC50) values. […]
as §7, §8

[4] = tested on: myeloid leukaemia cell line (NFS-60); assay: MTT anticancer activity, NFS-60; format: cell-based; conditions: NFS-60, 72 h, MTT; mean ± SEM
Outline: as §1

NFS-60 = assay: Flow cytometric annexin V/PI analysis of apoptosis, NFS-60; format: cell-based, human; conditions: IC50 of compound, 72 h, mean ± SEM
Method: as §2, §9, §10, §5, §6, §11, §7, §8

[5] = tested on: HepG-2, Caco-2, NFS-60, and PC-3 cancer cell lines; format: cell-based, human
Method: as §2, §3, §4, §5, §6
Anticancer effect of the above-mentioned compounds was evaluated using four human cancer cell lines. Colon cancer cells (Caco-2) were maintained in DMEM (Lonza, USA) containing 10% FBS while myeloid leukemia cell line (NFS-60), liver cancer cell line (HepG-2) and prostate cancer cell line (PC-3) were cultured in RPMI-1640 (Lonza, USA) supplemented with 10% FBS. All cancer cells (5x10^3 cells/well) were seeded in sterile 96-well plates. […]
Caco-2, PC-3 and NFS-60 cell lines. […] The apoptosis-dependent anticancer effect was determined by quantification of annexin-stained apoptotic cells using the FITC signal detector (FL1) against the phycoerythrin emission signal detector (FL2). […]

IC50 [1]: 50.4 nM
IC50 [4]: 33.2 nM
Compound: COc1cccc2c1C(=O)c1c(O)c3c(c(O)c1C2=O)C[C@@](O)(C(=O)CO)C[C@@H]3O[C@H]1C[C@H](N)[C@H](O)[C@H](C)O1 [Dox, doxorubicin, reference compound]
IC50 [2]: 26.6 nM
total percentage of the apoptotic cell population, HepG-2 (HepG-2): 39.265 ± 0.81%
total percentage of the apoptotic cell population, Caco-2 (Caco-2): 36.08 ± 0.23%
Fold increase in caspase activity [3]: 1.61 ± 0.088 fold
total percentage of the apoptotic cell population, PC-3 (PC-3): 34.59 ± 0.21%
total percentage of the apoptotic cell population, NFS-60 (NFS-60): 37.89 ± 0.28%
apoptosis-dependent death / percentage of annexin-stained population cells [5]: less than 39%

Reference: publication PMC9848351, “Discovery of new pyridine-quinoline hybrids as competitive and non-competitive PIM-1 kinase inhibitors with apoptosis induction and caspase 3/7 activation capabilities” (Journal of Enzyme Inhibition and Medicinal Chemistry, 2023)
